Data taken from patent US20040229960A1, “Compositions and methods of administering tubulin binding agents for the treatment of ocular diseases” (priority 2001, published 2004).

Columns and labels:
Format in all cases: in vivo, New Zealand rabbits
[1] = Biodistribution of 14C-CA4P following periocular injection
Procedure: (§1) ^14C-CA4P (OXiGENE Inc., Watertown, Mass.) was resuspended in 100 ul volume of saline solution and injected with a 30 G needle into the right eyes of anesthesized male New Zealand rabbits (4 months old, 1.8-2.5 kg, n=3 per sample). Three different concentrations of ^14C-CA4P were tested (1, 10, 100 mg/ml) corresponding to doses of 1, 5, and 5 uCi of applied radioactivity respectively. A blank control group was also included. Rabbits were anaesthetized at 1, 6, 24, and 48 hours for blood sampling. After blood collection, the animals were euthanized by Phenobarbital injection and the treated right eyes were removed from all test animals. Ocular tissue samples were dissected from the cornea, aqueous humor, vitreous humor, choroid, or retina, placed in 20-mi glass scintillation vials, vortexed, and incubated for 24 hrs with 500 ul digesting fluid. Plasma was separated from whole blood by centrifugation (1,800 g for 10 minutes). Both ocular tissue samples and plasma were incubated at room temperature with 16 ml of Hionic Fluor™ scintillation fluid for a period of 24 hours prior to radioactivity counting. Each sample was counted for 5 minutes in a Betamatic V counter (Bio-Tek Kontron Instruments, St Quentin en Yvelines, France). The conversion of counts per minute (“cpm”) into disintegrations per minute (“dpm”) was performed automatically by the beta-counter, using calibration curves obtained from ^14C-standards and quenching curves from the respective blank matrices spiked with ^14C-standards. The concentration of drug was determined according to nanogram equivalents of CA4P (ng-Eq/g of tissue) which was calculated from the measured dpm value, the weight of the tissue specimen, and the specific activity of the drug (0.37 mCi/mg), followed by subtraction of the corresponding background value from control eye tissue. A tissue concentration of 1 uM CA4P is equal to […] tissue.

[2] = Biodistribution of 14C-CA4P following subconjunctival injection
Procedure: as §1
Subconjuctival injections were administered at doses of 0.1, 1, 10, and 100 mg/ml. ^14C-CA4P solutions were formulated with 0.24% 10N KOH and 0.01% Benzalkonium chloride and injected in a volume of 100 ul. Animals were treated at an applied dose of 5 uCi with a single subconjunctival injection in right eyes. After delivery, the eye was gently held closed for 2-5 seconds.

[3] = Biodistribution of 14C-CA4P following sub-Tenon's injection
Procedure: as §1

SMILES: COc1ccc(/C=C\c2cc(OC)c(OC)c(OC)c2)cc1OP(=O)([O-])[O-].[Na+].[Na+] [CA4P, combretastatin A4 disodium phosphate]
- Cmax ([1]; choroid, 1 mg/ml periocular): 14.3 µM
- Cmax ([1]; choroid, 10 mg/ml periocular): 74.5 µM
- Cmax ([1]; choroid, 100 mg/ml periocular): 1040 µM
- Time of highest concentrations of drug in the eye ([1]; periocular injection): within the first hour
- Cmax ([1]; plasma, 1 mg/ml periocular): 0.07 µM
- Cmax ([1]; plasma, 10 mg/ml periocular): 0.79 µM
- Cmax ([1]; plasma, 100 mg/ml periocular): 12.3 µM
- Concentration of drug delivered ([1]; retina and choroid, all administered doses, periocular): > 1 µM
- Cmax ([1]; retina, 1 mg/ml periocular): 4.4 µM
- Cmax ([1]; retina, 10 mg/ml periocular): 54 µM
- Cmax ([1]; retina, 100 mg/ml periocular): 169 µM
- Cmax ([1]; sclera, 1 mg/ml periocular): 18 µM
- Cmax ([1]; sclera, 10 mg/ml periocular): 280 µM
- Cmax ([1]; sclera, 100 mg/ml periocular): 3370 µM
- Cmax ([1]; vitreous, 1 mg/ml periocular): 0.03 µM
- Cmax ([1]; vitreous, 10 mg/ml periocular): 0.34 µM
- Cmax ([1]; vitreous, 100 mg/ml periocular): 3.35 µM
- Cmax ([2]; choroid, 0.1 mg/ml subconjunctival): 2.3 µM
- Cmax ([2]; choroid, 1 mg/ml subconjunctival): 1.9 µM
- Cmax ([2]; choroid, 10 mg/ml subconjunctival): 188 µM
- Cmax ([2]; choroid, 100 mg/ml subconjunctival): 908 µM
- Concentration of drug delivered ([2]; cornea, retina and choroid, 100, 10 and 1 mg/ml, subconjunctival): > 1 µM
- Cmax ([2]; cornea, 0.1 mg/ml subconjunctival): 1.5 µM
- Cmax ([2]; cornea, 1 mg/ml subconjunctival): 13 µM
- Cmax ([2]; cornea, 10 mg/ml subconjunctival): 143 µM
- Cmax ([2]; cornea, 100 mg/ml subconjunctival): 761 µM
- Cmax ([2]; plasma, 0.1 mg/ml subconjunctival): 0.017 µM
- Cmax ([2]; plasma, 1 mg/ml subconjunctival): 0.025 µM
- Cmax ([2]; plasma, 10 mg/ml subconjunctival): 0.9 µM
- Cmax ([2]; plasma, 100 mg/ml subconjunctival): 8 µM
- Cmax ([2]; retina, 0.1 mg/ml subconjunctival): 0.13 µM
- Cmax ([2]; retina, 1 mg/ml subconjunctival): 1.7 µM
- Cmax ([2]; retina, 10 mg/ml subconjunctival): 39.6 µM
- Cmax ([2]; retina, 100 mg/ml subconjunctival): 174 µM
- Time of highest concentrations of drug in the eye ([2]; subconjunctival injection): within the first hour
- Cmax ([2]; vitreous, 0.1 mg/ml subconjunctival): 0.005 µM
- Cmax ([2]; vitreous, 1 mg/ml subconjunctival): 0.02 µM
- Cmax ([2]; vitreous, 10 mg/ml subconjunctival): 2.1 µM
- Cmax ([2]; vitreous, 100 mg/ml subconjunctival): 15.7 µM
- Cmax ([3]; aqueous humor, 1 mg/ml sub-Tenon's): 0.3 µM
- Cmax ([3]; aqueous humor, 10 mg/ml sub-Tenon's): 1.8 µM
- Cmax ([3]; aqueous humor, 100 mg/ml sub-Tenon's): 5.92 µM
- Cmax ([3]; choroid, 1 mg/ml sub-Tenon's): 1.2 µM
- Cmax ([3]; choroid, 10 mg/ml sub-Tenon's): 6.2 µM
- Cmax ([3]; choroid, 100 mg/ml sub-Tenon's): 861 µM
- Cmax ([3]; plasma, 1 mg/ml sub-Tenon's): 0.07 µM
- Cmax ([3]; plasma, 10 mg/ml sub-Tenon's): 0.49 µM
- Cmax ([3]; plasma, 100 mg/ml sub-Tenon's): 9.3 µM
- Concentration of drug delivered ([3]; retina and choroid, 100 and 10 mg/ml, sub-Tenon's): > 1 µM
- Cmax ([3]; retina, 1 mg/ml sub-Tenon's): 0.85 µM
- Cmax ([3]; retina, 10 mg/ml sub-Tenon's): 7.1 µM
- Cmax ([3]; retina, 100 mg/ml sub-Tenon's): 171 µM
- Time of highest concentrations of drug in the eye ([3]; sub-Tenon's injection): within the first hour
- Cmax ([3]; vitreous, 1 mg/ml sub-Tenon's): 0.019 µM
- Cmax ([3]; vitreous, 10 mg/ml sub-Tenon's): 0.13 µM
- Cmax ([3]; vitreous, 100 mg/ml sub-Tenon's): 3.9 µM
